From ChEMBL document CHEMBL3243978, “2-(Substituted phenyl)oxazolo[4,5-b]pyridines and 2-(substituted phenyl)oxazolo[5,4-b]pyridines as nonacidic antiinflammatory agents” (J Med Chem, 1978)
In brackets after ≈: the same amount, converted by molar mass.

Experiments:
Rattus norvegicus [1] = organism: Rattus norvegicus; experiment: animal or person; format: functional
Description: Antiinflammatory activity in rat assessed as inhibition of carrageenan-induced foot edema at 30 mg/kg

Rattus norvegicus [2] = organism: Rattus norvegicus; experiment: Antiarthritic activity in rat assessed as reduction in adjuvant-induced arthritic pain; format: functional
Rattus norvegicus [3] = experiment: Antiinflammatory activity in rat assessed as inhibition of carrageenan-induced foot edema; format: functional
[4] = Acute toxicity in po dosed mouse; settings: in vivo
[5] = target: T1, Prostaglandin E synthase (Homo sapiens) (UniProt O14684)
T1 sequence (whole entry): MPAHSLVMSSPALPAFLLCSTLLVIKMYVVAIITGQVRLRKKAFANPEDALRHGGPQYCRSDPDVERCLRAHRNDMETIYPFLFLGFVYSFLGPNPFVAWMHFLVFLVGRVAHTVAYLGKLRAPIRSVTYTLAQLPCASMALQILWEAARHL
Description: Inhibition of prostaglandin synthetase (unknown origin)

Rattus norvegicus [6] = experiment: Toxicity in rat assessed as indomethacin-induced intestinal perforation at 400 mg/kg after 3 days; format: organism-based; set-up: dose 400 mg/kg; settings: in vivo, 72 h
Rattus norvegicus [7] = experiment: Toxicity in rat assessed as indomethacin-induced intestinal perforation at 1024 mg/kg after 3 days; format: organism-based; set-up: dose 1024 mg/kg; settings: in vivo, 72 h
Rattus norvegicus [8] = experiment: Toxicity in rat assessed as indomethacin-induced intestinal perforation at 256 mg/kg after 3 days; format: organism-based; set-up: dose 256 mg/kg; settings: in vivo, 72 h

Compound | inhibition in vivo at 30 mg/kg (Rattus norvegicus [1]) [%] | also measured
Brc1ccccc1-c1nc2cccnc2o1 | 31 | –
Clc1ccc(-c2nc3cccnc3o2)cc1 | 14 | –
Clc1ccccc1-c1nc2cccnc2o1 | 50 | –
Fc1ccc(-c2nc3ncccc3o2)c(F)c1 | 23 | –
Cc1ccccc1-c1nc2cccnc2o1 | 3 | –
CSc1ccccc1-c1nc2ncccc2o1 | 21 | –
Clc1cccc(-c2nc3ncccc3o2)c1 | 32 | –
FC(F)(F)c1ccccc1-c1nc2ncccc2o1 | 19 | –
COc1ccc(-c2nc3ncccc3o2)cc1 | 14 | –
N#Cc1ccccc1-c1nc2ncccc2o1 | 62 | ED50 (Rattus norvegicus [2]): 20 mg/kg; ED50 (Mus musculus): 2 mg; ED50 (Rattus norvegicus [3]): 17 mg/kg; LD50 [4]: 1220 mg/kg; ED50 [5]: 14 µg/mL (≈ 63.3 µM)
CCCCC1C(=O)N(c2ccccc2)N(c2ccccc2)C1=O [PHENYLBUTAZONE] | – | ED50 (Rattus norvegicus [2]): 14 mg/kg; Activity (Rattus norvegicus [6]): Non-toxic; ED50 (Mus musculus): 4.3 mg; ED50 (Rattus norvegicus [3]): 28 mg/kg; LD50 [4]: 555 mg/kg; ED50 [5]: 3 µg/mL (≈ 9.73 µM)
N#Cc1ccc(-c2nc3cccnc3o2)cc1 | 17 | –
c1ccc(-c2nc3cccnc3o2)cc1 | 55 | –
COc1cccc(-c2nc3ncccc3o2)c1 | 14 | –
Fc1cccc(F)c1-c1nc2ncccc2o1 | 66 | ED50 (Rattus norvegicus [2]): 7.4 mg/kg; ED50 (Mus musculus): 2.4 mg; ED50 (Rattus norvegicus [3]): 22 mg/kg; LD50 [4]: 709 mg/kg; ED50 [5]: 15 µg/mL (≈ 64.6 µM)
COc1ccccc1-c1nc2ncccc2o1 | 9 | –
O=[N+]([O-])c1cccc(-c2nc3ncccc3o2)c1 | 21 | –
CC(C)Cc1ccc(C(C)C(=O)O)cc1 (stereo unspecified) [IBUPROFEN] | – | ED50 (Rattus norvegicus [2]): 27 mg/kg; ED50 (Mus musculus): 5 mg; ED50 (Rattus norvegicus [3]): 15 mg/kg; LD50 [4]: 1370 mg/kg; ED50 [5]: 0.4 µg/mL (≈ 1.94 µM)
N#Cc1cccc(-c2nc3ncccc3o2)c1 | 21 | –
O=[N+]([O-])c1ccccc1-c1nc2cccnc2o1 | 57 | –
COc1ccc2c(c1)c(CC(=O)O)c(C)n2C(=O)c1ccc(Cl)cc1 [INDOMETHACIN] | – | ED50 (Rattus norvegicus [2]): 0.27 mg/kg; ED50 (Mus musculus): 2.7 mg; ED50 (Rattus norvegicus [3]): 2.7 mg/kg; LD50 [4]: 50 mg/kg; ED50 [5]: 0.1 µg/mL (≈ 0.279 µM)
Brc1cccc(-c2nc3ncccc3o2)c1 | 23 | –
Nc1ccccc1-c1nc2cccnc2o1 | 13 | –
Fc1ccc(F)c(-c2nc3ncccc3o2)c1 | 18 | –
COc1ccc(Br)c(-c2nc3ncccc3o2)c1 | 8 | –
Fc1cccc(F)c1-c1nc2cccnc2o1 | 50 | –

Compound | inhibition in vivo at 30 mg/kg (Rattus norvegicus [1]) [%] | also measured
N#Cc1cccc(F)c1-c1nc2ncccc2o1 | 50 | –
Brc1ccccc1-c1nc2ncccc2o1 | 24 | –
COc1ccc(-c2nc3cccnc3o2)cc1 | 29 | –
Fc1ccc(-c2nc3ncccc3o2)cc1 | 28 | –
Fc1cc(Cl)ccc1-c1nc2ncccc2o1 | 19 | –
Clc1ccccc1-c1nc2ncccc2o1 | 38 | –
Cc1ccc(-c2nc3ncccc3o2)cc1 | 5 | –
FC(F)(F)c1cccc(-c2nc3cccnc3o2)c1 | 7 | –
CC(=O)Oc1ccccc1C(=O)O [ASPIRIN] | – | ED50 (Rattus norvegicus [2]): 67 mg/kg; ED50 (Mus musculus): 7 mg; ED50 (Rattus norvegicus [3]): 89 mg/kg; LD50 [4]: 1220 mg/kg; ED50 [5]: 13.4 µg/mL (≈ 74.4 µM); Activity (Rattus norvegicus [7]): Non-toxic
Cc1ccc(-c2nc3cccnc3o2)cc1 | 0 | –
FC(F)(F)Oc1ccc(-c2nc3ncccc3o2)cc1 | 0 | –
Fc1ccc(-c2nc3cccnc3o2)cc1 | 27 | –
N#Cc1ccccc1-c1nc2cccnc2o1 | 61 | ED50 (Rattus norvegicus [2]): 44 mg/kg; Activity (Rattus norvegicus [8]): Non-toxic; ED50 (Mus musculus): 3 mg; ED50 (Rattus norvegicus [3]): 11 mg/kg; LD50 [4]: 1500 mg/kg; ED50 [5]: 16 µg/mL (≈ 72.3 µM)
O=[N+]([O-])c1ccc(-c2nc3cccnc3o2)cc1 | 5 | –
Fc1cccc(-c2nc3cccnc3o2)c1 | 35 | –
c1ccc(-c2nc3ncccc3o2)cc1 | 41 | –
Clc1cccc(-c2nc3cccnc3o2)c1 | 8 | –
N#Cc1cccc(C#N)c1-c1nc2ncccc2o1 | 19 | –
COc1ccc(C#N)c(-c2nc3ncccc3o2)c1 | 3 | –
Fc1ccccc1-c1nc2ncccc2o1 | 64 | ED50 (Rattus norvegicus [2]): 23 mg/kg; Activity (Rattus norvegicus [8]): Non-toxic; ED50 (Mus musculus): 6 mg; ED50 (Rattus norvegicus [3]): 21 mg/kg; LD50 [4]: 556 mg/kg; ED50 [5]: 3 µg/mL (≈ 14 µM)
Cc1cccc(-c2nc3cccnc3o2)c1 | 14 | –
Clc1ccc(-c2nc3ncccc3o2)cc1 | 24 | –
Cc1ccccc1-c1nc2ncccc2o1 | 0 | –
COc1cccc(-c2nc3cccnc3o2)c1 | 0 | –
Clc1cccc(Cl)c1-c1nc2ncccc2o1 | 14 | –
